Laboratory results published in paper PMC5342483, “Nucleoside 5′-O-monophosphorothioates as modulators of the P2Y14 receptor and mast cell degranulation” (Oncotarget, 2016).

Tests used:
Type in all cases: cell-based
[1] = target: T1, P2Y14 receptor (Homo sapiens, UniProt Q15391); test: Agonist calcium mobilization assay (Fluo-8) in HEK293T Gαqi5 cells stably expressing human P2Y14R; conditions: HEK-293T; read-out: CONCENTRATION / 100 μM
T1 construct: gene P2RY14
T1 sequence (Q15391 1-338): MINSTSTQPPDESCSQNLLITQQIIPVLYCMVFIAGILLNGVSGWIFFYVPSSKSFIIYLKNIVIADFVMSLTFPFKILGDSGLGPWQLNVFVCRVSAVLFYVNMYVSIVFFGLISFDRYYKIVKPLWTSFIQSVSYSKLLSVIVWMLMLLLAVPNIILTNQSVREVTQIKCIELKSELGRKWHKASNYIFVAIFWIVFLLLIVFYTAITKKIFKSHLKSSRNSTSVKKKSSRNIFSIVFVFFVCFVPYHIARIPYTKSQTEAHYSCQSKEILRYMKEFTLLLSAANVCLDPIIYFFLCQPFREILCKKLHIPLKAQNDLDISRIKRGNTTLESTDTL

[2] = target: T1, P2Y14 receptor; test: Antagonist calcium mobilization assay (Fluo-8) in HEK293T Gαqi5 cells stably expressing human P2Y14R; residual response to UDPG (EC80)[…] at […], […] at […]; conditions: HEK-293T; read-out: CONCENTRATION / 1000 μM
[3] = target: T1, P2Y14 receptor; test: Agonist calcium mobilization assay (Fluo-8) in HEK293T Gαqi5 cells stably expressing human P2Y14R; conditions: HEK-293T; read-out: CONCENTRATION / 1 μM

Row | SMILES | activation at 100 µM [1] [%] | also measured
1 | Nc1ncnc2c1ncn2[C@@H]1O[C@H](COP(O)(O)=S)[C@@H](O)[C@H]1O [AMPS, adenosine 5'-O-monophosphorothioate] | 84.4 ± 17.6 | 
2 | Nc1ccn([C@@H]2O[C@H](COP(O)(O)=S)[C@@H](O)[C@H]2O)c(=O)n1 [CMPS, cytidine 5'-O-monophosphorothioate] | 77.5 ± 4.4 | 
3 | Cc1cn([C@H]2C[C@H](O)[C@@H](COP(O)(O)=S)O2)c(=O)[nH]c1=O [TMPS, thymidine 5'-O-monophosphorothioate] |  | activity at 1000 µM [2]: 17.3 ± 52.9%
4 | O=c1ccn([C@@H]2O[C@H](COP(O)(O)=S)[C@@H](O)[C@H]2O)c(=O)[nH]1 [UMPS, uridine 5'-O-monophosphorothioate] |  | activation at 1 µM [3]: 84.5 ± 5.34%
